The test system of experiment [1] is PC3. Description: PC3 tumor cell line proliferation assay. Format: cell-based. To be noted: Homo sapiens, PC-3; for EC50: Table 1; for IC50: Table 2, in vitro IC50.
Procedure: The assay is performed in a 96 well microtiter plate using Alamar Blue reduction. […] A compound disclosed herein is diluted in Tumor Cell Media and added in a 10 ul volume. […] A volume of 10 uL of Alamar Blue reagent is added to each well and plates are incubated for 3 hours at 37 C and 5% CO2. Alamar Blue fluoresce is read at 560Ex/590Em, and IC50 values are calculated using GraphPad Prism 5.
Experiment [2] concerns the target PI3K β (Homo sapiens (Human), UniProt P42338). Description: PI3K β kinase assay. Format: biochemical. To be noted: Table 2.
For experiment [3], the target named is mTORC (Homo sapiens (Human), UniProt P42345). Put plainly: mTORC in vitro IC50 (Table 2). Type of experiment: biochemical.
Procedure: The compounds described herein and any other mTor inhibitors known in the art can be tested against recombinant mTOR (Invitrogen) in an assay containing 50 mM HEPES, pH 7.5, 1 mM EGTA, 10 mM MgCl2, 2.5 mM, 0.01% Tween, 10 μM ATP (2.5 μCi of μ-32P-ATP), and 3 μg/mL BSA. Rat recombinant PHAS-1/4EBP1 (Calbiochem; 2 mg/mL) is used as a substrate. Reactions are terminated by spotting onto nitrocellulose, which is washed with 1M NaCl/1% phosphoric acid (approximately 6 times, 5-10 minutes each). Sheets are dried and the transferred radioactivity quantitated by phosphorimaging.
For instance, one can use Invitrogen's LanthaScreen™ Kinase assay to test the inhibitors of mTOR disclosed herein. This assay is a time resolved FRET platform that measures the phosphorylation of GFP labeled 4EBP1 by mTOR kinase. The kinase reaction is performed in a white 384 well microtitre plate. The total reaction volume is 20 ul per well and the reaction buffer composition is 50 mM HEPES pH7.5, 0.01% Polysorbate 20, 1 mM EGTA, 10 mM MnCl2, and 2 mM DTT. In the first step, each well receives 2 ul of test compound in 20% dimethylsulphoxide resulting in a 2% DMSO final concentration. Next, 8 ul of mTOR diluted in reaction buffer is added per well for a 60 ng/ml final concentration. To start the reaction, 10 ul of an ATP/GFP-4EBP1 mixture (diluted in reaction buffer) is added per well for a final concentration of 10 μM ATP and 0.5 μM GFP-4EBP1. The plate is sealed and incubated for 1 hour at room temperature. […] The plate is sealed, incubated for 1 hour at room temperature, and then read on a plate reader set up for LanthaScreen™ TR-FRET. Data is analyzed and IC50s are generated using GraphPad Prism 5.
Experiment [4] deals with PI3K α (Homo sapiens (Human), UniProt P42336). Description: PI3K α kinase assay. Format: biochemical.
Experiment [5] addresses PI3K δ (Homo sapiens (Human), UniProt O00329). Description: PI3K δ kinase assay. Type of experiment: biochemical.
The target of experiment [6] is PI3K γ (Homo sapiens (Human), UniProt P48736). Put plainly: PI3K γ kinase assay. Format: biochemical.

Like-named read-outs stand apart in the source and are kept apart here. A value given as a limit tells only on which side of the number the result lay.

Sequence of PI3K α (P42336 whole entry): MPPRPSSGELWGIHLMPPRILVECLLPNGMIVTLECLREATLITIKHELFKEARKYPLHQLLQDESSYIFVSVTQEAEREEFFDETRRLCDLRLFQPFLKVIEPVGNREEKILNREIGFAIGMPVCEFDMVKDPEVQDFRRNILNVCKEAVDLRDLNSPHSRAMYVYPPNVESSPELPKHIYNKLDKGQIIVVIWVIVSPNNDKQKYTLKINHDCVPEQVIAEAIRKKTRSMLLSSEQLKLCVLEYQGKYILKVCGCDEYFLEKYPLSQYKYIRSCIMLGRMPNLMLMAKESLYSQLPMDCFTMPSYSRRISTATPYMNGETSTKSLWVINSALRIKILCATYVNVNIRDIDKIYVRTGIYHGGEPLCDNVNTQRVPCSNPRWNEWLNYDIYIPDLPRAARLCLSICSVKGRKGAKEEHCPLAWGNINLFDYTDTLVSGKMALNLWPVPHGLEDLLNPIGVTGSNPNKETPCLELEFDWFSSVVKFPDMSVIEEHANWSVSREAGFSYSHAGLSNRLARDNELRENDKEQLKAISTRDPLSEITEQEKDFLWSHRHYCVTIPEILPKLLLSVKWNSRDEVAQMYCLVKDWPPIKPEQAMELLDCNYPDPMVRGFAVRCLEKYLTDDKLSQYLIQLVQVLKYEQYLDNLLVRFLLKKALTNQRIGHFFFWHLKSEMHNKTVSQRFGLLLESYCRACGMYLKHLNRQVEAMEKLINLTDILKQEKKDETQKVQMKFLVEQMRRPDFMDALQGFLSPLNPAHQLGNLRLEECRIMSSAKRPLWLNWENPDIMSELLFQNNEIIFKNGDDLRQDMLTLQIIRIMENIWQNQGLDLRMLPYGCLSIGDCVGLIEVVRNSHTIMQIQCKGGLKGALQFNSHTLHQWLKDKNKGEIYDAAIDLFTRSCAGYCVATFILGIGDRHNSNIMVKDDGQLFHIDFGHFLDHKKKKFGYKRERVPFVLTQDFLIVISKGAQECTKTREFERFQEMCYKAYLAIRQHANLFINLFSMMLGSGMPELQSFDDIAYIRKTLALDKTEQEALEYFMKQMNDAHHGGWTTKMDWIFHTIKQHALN
Sequence of PI3K α (P27986 whole entry partner): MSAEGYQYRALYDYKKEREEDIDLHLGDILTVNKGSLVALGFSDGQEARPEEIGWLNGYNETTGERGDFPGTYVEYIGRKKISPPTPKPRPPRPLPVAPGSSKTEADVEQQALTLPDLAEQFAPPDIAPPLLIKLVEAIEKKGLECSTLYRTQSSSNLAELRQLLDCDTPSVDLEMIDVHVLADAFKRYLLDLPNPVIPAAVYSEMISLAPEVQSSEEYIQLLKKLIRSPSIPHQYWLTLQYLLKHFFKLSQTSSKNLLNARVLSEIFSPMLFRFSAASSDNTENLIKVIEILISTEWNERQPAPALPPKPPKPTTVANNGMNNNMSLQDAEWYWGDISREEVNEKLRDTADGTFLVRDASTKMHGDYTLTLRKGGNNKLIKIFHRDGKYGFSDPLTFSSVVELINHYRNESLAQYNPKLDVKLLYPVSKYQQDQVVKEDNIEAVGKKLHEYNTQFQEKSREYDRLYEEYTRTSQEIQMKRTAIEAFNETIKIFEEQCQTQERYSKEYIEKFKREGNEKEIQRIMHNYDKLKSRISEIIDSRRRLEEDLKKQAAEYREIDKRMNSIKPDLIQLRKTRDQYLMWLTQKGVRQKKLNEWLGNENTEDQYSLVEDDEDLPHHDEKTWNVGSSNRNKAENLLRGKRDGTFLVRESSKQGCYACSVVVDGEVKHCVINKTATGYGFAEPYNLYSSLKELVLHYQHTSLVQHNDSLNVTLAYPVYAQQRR
Sequence of PI3K β (P42338 whole entry, species assumed): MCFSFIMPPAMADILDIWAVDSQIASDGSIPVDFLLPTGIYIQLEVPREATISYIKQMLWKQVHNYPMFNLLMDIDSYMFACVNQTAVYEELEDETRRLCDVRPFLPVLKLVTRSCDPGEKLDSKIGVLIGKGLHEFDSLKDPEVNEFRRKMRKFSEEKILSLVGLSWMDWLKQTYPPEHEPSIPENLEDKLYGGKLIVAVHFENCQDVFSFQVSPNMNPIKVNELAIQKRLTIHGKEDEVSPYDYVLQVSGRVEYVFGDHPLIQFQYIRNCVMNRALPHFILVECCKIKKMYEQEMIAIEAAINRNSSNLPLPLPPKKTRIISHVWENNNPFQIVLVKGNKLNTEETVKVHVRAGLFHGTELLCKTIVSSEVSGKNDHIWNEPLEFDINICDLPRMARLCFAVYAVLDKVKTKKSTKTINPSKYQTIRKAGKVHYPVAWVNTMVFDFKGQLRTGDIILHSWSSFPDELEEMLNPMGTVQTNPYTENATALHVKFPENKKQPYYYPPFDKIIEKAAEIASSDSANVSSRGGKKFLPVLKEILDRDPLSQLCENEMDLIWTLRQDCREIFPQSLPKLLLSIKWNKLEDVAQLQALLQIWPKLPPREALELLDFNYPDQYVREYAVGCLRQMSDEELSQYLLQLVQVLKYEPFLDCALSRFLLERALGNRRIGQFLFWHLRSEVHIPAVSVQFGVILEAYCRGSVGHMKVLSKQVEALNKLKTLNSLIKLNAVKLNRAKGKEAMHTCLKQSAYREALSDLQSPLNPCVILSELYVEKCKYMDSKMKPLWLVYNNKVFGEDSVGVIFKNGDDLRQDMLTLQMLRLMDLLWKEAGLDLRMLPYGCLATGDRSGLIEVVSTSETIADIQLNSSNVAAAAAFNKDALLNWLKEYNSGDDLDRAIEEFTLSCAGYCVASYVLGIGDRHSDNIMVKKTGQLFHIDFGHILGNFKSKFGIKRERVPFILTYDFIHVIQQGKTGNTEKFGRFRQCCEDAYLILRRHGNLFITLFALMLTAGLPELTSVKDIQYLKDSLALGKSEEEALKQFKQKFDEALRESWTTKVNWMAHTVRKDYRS
Sequence of PI3K β (P27986 whole entry partner, species assumed): as the sequence (P27986 whole entry partner) above
Sequence of PI3K δ (O00329 whole entry, species assumed): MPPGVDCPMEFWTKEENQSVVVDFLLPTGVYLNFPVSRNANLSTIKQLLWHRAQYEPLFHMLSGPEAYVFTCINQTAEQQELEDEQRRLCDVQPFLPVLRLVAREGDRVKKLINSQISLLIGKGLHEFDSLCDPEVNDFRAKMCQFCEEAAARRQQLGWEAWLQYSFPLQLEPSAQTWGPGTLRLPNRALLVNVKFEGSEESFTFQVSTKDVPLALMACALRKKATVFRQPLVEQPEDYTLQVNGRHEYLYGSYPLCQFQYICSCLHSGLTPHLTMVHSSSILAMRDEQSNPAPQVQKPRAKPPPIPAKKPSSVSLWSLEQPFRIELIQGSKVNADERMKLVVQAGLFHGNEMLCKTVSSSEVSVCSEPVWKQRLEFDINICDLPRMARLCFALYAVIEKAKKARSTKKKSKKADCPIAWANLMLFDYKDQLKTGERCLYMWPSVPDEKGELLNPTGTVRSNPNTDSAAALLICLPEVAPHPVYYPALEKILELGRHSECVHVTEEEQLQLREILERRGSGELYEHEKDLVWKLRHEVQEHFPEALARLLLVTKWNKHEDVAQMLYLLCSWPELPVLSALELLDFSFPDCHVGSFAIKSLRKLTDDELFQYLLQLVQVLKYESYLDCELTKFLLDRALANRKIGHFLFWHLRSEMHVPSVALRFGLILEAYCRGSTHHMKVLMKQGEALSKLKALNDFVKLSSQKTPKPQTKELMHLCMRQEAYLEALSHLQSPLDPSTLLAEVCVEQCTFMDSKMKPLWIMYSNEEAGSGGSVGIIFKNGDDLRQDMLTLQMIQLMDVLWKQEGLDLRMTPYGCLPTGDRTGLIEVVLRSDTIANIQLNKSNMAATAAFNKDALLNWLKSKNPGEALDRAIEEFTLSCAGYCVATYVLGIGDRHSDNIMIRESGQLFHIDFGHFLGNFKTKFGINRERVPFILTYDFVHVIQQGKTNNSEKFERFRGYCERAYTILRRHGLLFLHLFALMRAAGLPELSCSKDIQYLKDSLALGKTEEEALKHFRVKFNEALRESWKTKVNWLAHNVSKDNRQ
Sequence of PI3K δ (P27986 whole entry partner, species assumed): as the sequence (P27986 whole entry partner) above
Sequence of PI3K γ (P48736 whole entry, species assumed): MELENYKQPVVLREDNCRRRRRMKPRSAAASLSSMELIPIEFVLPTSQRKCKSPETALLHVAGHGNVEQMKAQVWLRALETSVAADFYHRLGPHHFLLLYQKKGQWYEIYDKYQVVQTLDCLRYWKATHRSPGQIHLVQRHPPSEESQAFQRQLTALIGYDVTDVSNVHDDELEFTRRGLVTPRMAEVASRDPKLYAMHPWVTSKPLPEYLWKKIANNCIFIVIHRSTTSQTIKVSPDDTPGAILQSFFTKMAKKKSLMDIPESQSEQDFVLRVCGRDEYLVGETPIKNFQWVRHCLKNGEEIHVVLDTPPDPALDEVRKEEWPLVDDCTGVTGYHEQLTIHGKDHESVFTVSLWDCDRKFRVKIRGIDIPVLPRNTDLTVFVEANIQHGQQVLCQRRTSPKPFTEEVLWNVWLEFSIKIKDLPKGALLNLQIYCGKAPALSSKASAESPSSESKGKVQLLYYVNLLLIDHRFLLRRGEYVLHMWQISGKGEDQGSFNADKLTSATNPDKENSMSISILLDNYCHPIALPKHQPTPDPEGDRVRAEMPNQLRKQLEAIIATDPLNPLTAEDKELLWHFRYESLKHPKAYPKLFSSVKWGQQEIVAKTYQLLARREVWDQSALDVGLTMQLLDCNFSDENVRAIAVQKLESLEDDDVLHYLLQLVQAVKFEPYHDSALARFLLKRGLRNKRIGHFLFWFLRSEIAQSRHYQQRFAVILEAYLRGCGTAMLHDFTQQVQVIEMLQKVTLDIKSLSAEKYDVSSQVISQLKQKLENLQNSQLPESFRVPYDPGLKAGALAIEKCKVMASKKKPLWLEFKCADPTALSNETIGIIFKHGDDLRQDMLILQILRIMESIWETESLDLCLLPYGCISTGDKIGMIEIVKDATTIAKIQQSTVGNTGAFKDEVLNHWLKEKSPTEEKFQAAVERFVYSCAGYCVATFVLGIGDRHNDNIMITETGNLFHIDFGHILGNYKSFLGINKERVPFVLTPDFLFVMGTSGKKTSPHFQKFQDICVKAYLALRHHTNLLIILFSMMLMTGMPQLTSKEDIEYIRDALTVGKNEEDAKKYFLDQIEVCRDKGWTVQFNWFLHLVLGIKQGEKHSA

For `CC(=O)Nc1nc2cc(-c3nn(C(C)C)c4ncnc(N)c34)ccc2o1` [Compound 2], the EC50 in experiment [1] is below 1000 nM.

`CC(C)n1nc(-c2ccc3nc(N)oc3c2)c2c(N)ncnc21` [Compound 4] yielded an EC50 in experiment [1] below 10000 nM.

Consider `COc1ccc2[nH]c(-c3nn(C(C)C)c4ncnc(N)c34)cc2c1` [Compound 5], for which the IC50 in experiment [1] was above 500 nM.

Consider `Nc1nc2cc(-c3nn(C4CCOCC4)c4ncnc(N)c34)ccc2o1` [Compound 5], for which the concentration for a half-maximal effect (EC50) in experiment [1] was below 100 nM.

In experiment [1], `CC(C)n1nc(-c2cc3ccccc3n2C)c2c(N)ncnc21` [Compound 6] showed a 50% inhibitory concentration (IC50) above 500 nM.

Molecule `Nc1nc2cc(-c3nn(C4CCC(N5CCOCC5)CC4)c4ncnc(N)c34)ccc2o1` (stereo not drawn) [Compound 6] displayed a concentration for a half-maximal effect (EC50) in experiment [1] below 1000 nM.

`CC(=O)N1CCC(n2nc(-c3ccc4oc(N)nc4c3)c3c(N)ncnc32)CC1` [Compound 7] had a concentration giving a half-maximal response (EC50) in experiment [1] below 10000 nM.

Regarding `CC(C)n1nc(-c2cc3ccccc3[nH]2)c2c(N)ncnc21` [Compound 7], the concentration for half-maximal inhibition (IC50) in experiment [1] is above 500 nM.

`CC(C)n1cc(-c2ccc3oc(N)nc3c2)c2c(N)ncnc21` [Compound 8] had an EC50 in experiment [1] below 100 nM.

The molecule `COc1ccc2cc(-c3nn(C(C)C)c4ncnc(N)c34)[nH]c2c1` [Compound 8] showed an IC50 in experiment [1] above 500 nM.

For the molecule `CC(C)n1nc(-c2cc3c(Cl)cccc3[nH]2)c2c(N)ncnc21` [Compound 9], the IC50 in experiment [1] was above 500 nM.

`Nc1nc2cc(-c3cn(C4CCOCC4)c4ncnc(N)c34)ccc2o1` [Compound 9] showed an EC50 in experiment [1] below 100 nM.

For `CC(C)n1nc(-c2ccc3onc(N)c3c2)c2c(N)ncnc21` [Compound 10], the concentration for a half-maximal effect (EC50) in experiment [1] is above 10000 nM.

With `CC(=O)Nc1noc2cc(-c3nn(C(C)C)c4ncnc(N)c34)ccc12` [Compound 11], in experiment [1], the concentration for a half-maximal effect (EC50) was above 10000 nM.

As to `CC(C)n1nc(-c2cc3cccc(O)c3[nH]2)c2c(N)ncnc21` [Compound 11], the IC50 in experiment [1] was below 50 nM.

Consider `CC(C)n1nc(-c2ccc3c(N)noc3c2)c2c(N)ncnc21` [Compound 12], for which the half-maximal effective concentration (EC50) in experiment [1] is above 10000 nM.

In experiment [1], `Nc1ncnc2c1c(-c1cc3cc(O)ccc3[nH]1)nn2C1CCCC1` [Compound 12] displayed a half-maximal inhibitory concentration (IC50) below 50 nM.

In experiment [1], `COc1cc(Cl)c2[nH]c(-c3nn(C(C)C)c4ncnc(N)c34)cc2c1` [Compound 13] gave a half-inhibitory concentration (IC50) above 500 nM.

As to `CC(C)n1nc(-c2cc3cc(O)cc(Cl)c3[nH]2)c2c(N)ncnc21` [Compound 15], the 50% inhibitory concentration (IC50) in experiment [1] is below 50 nM.

For `CC(C)n1nc(-c2cc3cc(O)cc(F)c3[nH]2)c2c(N)ncnc21` [Compound 16], the IC50 in experiment [1] is below 500 nM.

`CC(C)n1nc(-c2cc3cc(Cl)ccc3[nH]2)c2c(N)ncnc21` [Compound 17] returned a half-maximal inhibitory concentration (IC50) in experiment [1] above 500 nM.

Regarding `CC(C)n1nc(-c2cc3ccc(O)cc3[nH]2)c2c(N)ncnc21` [Compound 21], the half-maximal inhibitory concentration (IC50) in experiment [1] was above 500 nM.

In experiment [1], `CC(C)n1nc(-c2cc3ccc(C#N)cc3[nH]2)c2c(N)ncnc21` [Compound 24] showed an IC50 above 500 nM.

For `CC(C)n1nc(-c2cc3ccc(C(N)=O)cc3[nH]2)c2c(N)ncnc21` [Compound 25], the half-maximal inhibitory concentration (IC50) in experiment [1] was above 500 nM.

Take `Nc1ncnc2c1c(-c1cc3cc(O)ccc3[nH]1)nn2C1CCCCC1` [Compound 26]: in experiment [1], the IC50 is below 500 nM.

Molecule `Nc1ncnc2c1c(-c1cc3cc(O)ccc3[nH]1)nn2C1CCC1` [Compound 27] registered an IC50 in experiment [1] below 500 nM.

On to `CCOC(=O)Cn1nc(-c2cc3cc(O)ccc3[nH]2)c2c(N)ncnc21` [Compound 28], for which the IC50 is above 500 nM in experiment [2]; below 500 nM in experiment [3]; above 500 nM in experiment [4] (Table 2); above 500 nM in experiment [5] (Table 2); above 500 nM in experiment [1].

In experiment [3], `COc1cc2cc(-c3nn(C(C)C)c4ncnc(N)c34)[nH]c2cc1Cl` [Compound 29] showed an IC50 above 500 nM.

On to `CC(=O)N1CCC(n2nc(-c3cc4cc(O)ccc4[nH]3)c3c(N)ncnc32)CC1` [Compound 30], for which the IC50 in experiment [2] was above 500 nM; in experiment [3], below 25 nM; in experiment [4] it was above 500 nM; in experiment [5] (Table 2) it was above 500 nM; in experiment [1], above 500 nM.

As to `Nc1ncnc2c1c(-c1cc3cc(O)ccc3[nH]1)nn2C1CCN(C(=O)C2CC2)CC1` [Compound 31], the concentration for half-maximal inhibition (IC50) was above 500 nM in experiment [2]; below 25 nM in experiment [3]; above 500 nM in experiment [4]; below 500 nM in experiment [5] (Table 2); above 500 nM in experiment [1].

Regarding `CC(C)n1nc(-c2cc3cc(O)c(Cl)cc3[nH]2)c2c(N)ncnc21` [Compound 32], the half-inhibitory concentration (IC50) in experiment [6] (Table 2) is above 500 nM; in experiment [3], below 500 nM; in experiment [4] it was above 500 nM; in experiment [5] (Table 2) it was above 500 nM; in experiment [1], above 500 nM.

Regarding `Nc1ncnc2c1c(-c1cc3cc(O)ccc3[nH]1)nn2CCN1CCOCC1` [Compound 33], the 50% inhibitory concentration (IC50) in experiment [6] (Table 2) is above 500 nM; in experiment [3] it was below 500 nM; in experiment [4] (Table 2) it was above 500 nM; in experiment [5] (Table 2), above 500 nM; in experiment [1], above 500 nM.

In the case of `Nc1ncnc2c1c(-c1cc3cc(O)ccc3[nH]1)nn2CC(=O)N1CCOCC1` [Compound 34], the IC50 in experiment [6] (Table 2), in experiment [3], in experiment [4] (Table 2) and in experiment [5] (Table 2) was above 500 nM each time.

For `CNC(=O)Cn1nc(-c2cc3cc(O)ccc3[nH]2)c2c(N)ncnc21` [Compound 35], the IC50 in experiment [6] (Table 2), in experiment [3], in experiment [4] (Table 2) and in experiment [5] (Table 2) was above 500 nM throughout.

For `Nc1ncnc2c1c(-c1cc3cccc(O)c3[nH]1)nn2C1CCCC1` [Compound 36], the concentration for half-maximal inhibition (IC50) in experiment [6] (Table 2) was below 100 nM; in experiment [3], below 10 nM; in experiment [4] (Table 2), above 500 nM; in experiment [5] (Table 2), below 500 nM; in experiment [1], below 100 nM.

Regarding `CC(C)n1nc(-c2cc3c(O)cccc3[nH]2)c2c(N)ncnc21` [Compound 37], the 50% inhibitory concentration (IC50) is below 500 nM in experiment [6] (Table 2), above 500 nM in experiment [3], below 500 nM in experiment [4] (Table 2) and below 500 nM in experiment [5] (Table 2).

As to `Nc1ncnc2c1c(-c1cc3cc(O)ccc3[nH]1)nn2Cc1cccnc1` [Compound 38], the half-inhibitory concentration (IC50) in experiment [6] was above 500 nM; in experiment [3], below 500 nM; in experiment [4] (Table 2), above 500 nM; in experiment [5] (Table 2) it was above 500 nM; in experiment [1] it was above 500 nM.

Take `CC(C)n1nc(-c2cc3c(Cl)ccc(O)c3[nH]2)c2c(N)ncnc21` [Compound 39]: the IC50 in experiment [6] (Table 2) is above 500 nM; in experiment [3] it was below 10 nM; in experiment [4] (Table 2) it was above 500 nM; in experiment [5] (Table 2), above 500 nM; in experiment [1], above 500 nM.

Take `COCCn1nc(-c2cc3cc(O)ccc3[nH]2)c2c(N)ncnc21` [Compound 40]: the IC50 in experiment [6] (Table 2) was above 500 nM; in experiment [3], below 100 nM; in experiment [4] (Table 2), above 500 nM; in experiment [5] it was above 500 nM; in experiment [1] it was above 500 nM.

`Nc1ncnc2c1c(-c1cc3cc(O)ccc3[nH]1)nn2C1CCOCC1` [Compound 42]: the IC50 in experiment [2] is above 500 nM; in experiment [3] it was below 5 nM; in experiment [4], above 500 nM; in experiment [5] (Table 2), below 100 nM; in experiment [1] it was above 500 nM.

As to `CNC(=O)CCn1nc(-c2cc3cc(O)ccc3[nH]2)c2c(N)ncnc21` [Compound 43], the concentration for half-maximal inhibition (IC50) in experiment [2], in experiment [3], in experiment [4] (Table 2) and in experiment [5] (Table 2) was above 500 nM in each case.

Regarding `Cc1nccn1CCn1nc(-c2cc3cc(O)ccc3[nH]2)c2c(N)ncnc21` [Compound 44], the IC50 in experiment [2] is above 500 nM; in experiment [3], below 100 nM; in experiment [4] (Table 2), above 500 nM; in experiment [5] it was above 500 nM.

As to `CC(C)n1nc(-c2cc3cc(O)ccc3[nH]2)c2c(N)nccc21` [Compound 45], the half-maximal inhibitory concentration (IC50) in experiment [3] is above 500 nM.

Regarding `Nc1ncnc2c1c(-c1cc3c(Cl)cccc3[nH]1)nn2C1CCOCC1` [Compound 48], the IC50 in experiment [6] (Table 2) is above 500 nM; in experiment [2], above 500 nM; in experiment [3], below 50 nM; in experiment [4] (Table 2), above 500 nM; in experiment [5] (Table 2), above 500 nM.

For `Nc1ncnc2c1c(-c1cc3cc(O)ccc3[nH]1)nn2C1CC(=O)C1` [Compound 53], the IC50 in experiment [6] (Table 2) was above 500 nM; in experiment [2], above 500 nM; in experiment [3] it was below 100 nM; in experiment [4] (Table 2) it was above 500 nM.

On to `Nc1ncnc2c1c(-c1cc3cc(O)ccc3[nH]1)nn2C1CC(O)C1` (stereo not drawn) [Compound 54], for which the IC50 in experiment [6] (Table 2) was above 500 nM; in experiment [2] it was above 500 nM; in experiment [3], below 25 nM; in experiment [4] (Table 2), above 500 nM.

For `CC(C)N1CCC(n2nc(-c3cc4cc(O)ccc4[nH]3)c3c(N)ncnc32)CC1` [Compound 55], the IC50 in experiment [6] (Table 2) is above 500 nM; in experiment [2], above 500 nM; in experiment [3], below 500 nM; in experiment [4] (Table 2), above 500 nM.

As for `CC(C)N1CCC(n2nc(-c3cc4cc(O)cc(Cl)c4[nH]3)c3c(N)ncnc32)CC1` [Compound 56], the IC50 in experiment [6] (Table 2), in experiment [2], in experiment [3] and in experiment [4] (Table 2) was above 500 nM throughout.

Consider `Nc1ncnc2c1c(-c1cc3cc(O)ccc3[nH]1)nn2C1CCC(N2CCOCC2)CC1` (stereo not drawn) [Compound 57], for which the half-maximal inhibitory concentration (IC50) is above 500 nM in experiment [6] (Table 2), above 500 nM in experiment [2], below 25 nM in experiment [3] and above 500 nM in experiment [4] (Table 2).

For the molecule `CN1CCN(C2CCC(n3nc(-c4cc5cc(O)ccc5[nH]4)c4c(N)ncnc43)CC2)CC1` (stereo not drawn) [Compound 58], the IC50 in experiment [6] (Table 2), in experiment [2], in experiment [3] and in experiment [4] was above 500 nM each time.

For the molecule `COc1ccc2cc(-c3nn(C4CCOCC4)c4ncnc(N)c34)[nH]c2c1` [Compound 59], the IC50 in experiment [6] (Table 2), in experiment [2], in experiment [3] and in experiment [4] (Table 2) was above 500 nM in each case.

Regarding `Nc1ncnc2c1c(-c1cc3ccc(O)cc3[nH]1)nn2C1CCOCC1` [Compound 60], the half-maximal inhibitory concentration (IC50) in experiment [6] (Table 2) was below 100 nM; in experiment [2], above 500 nM; in experiment [3], below 100 nM; in experiment [4] (Table 2), above 500 nM.

The term EC50 denotes the concentration at which the effect is half-maximal. A lower EC50 goes with a more potent agent. For orientation: IC50 means the concentration at which inhibition is half-maximal. High values mean a need for much substance, low ones inhibition by little substance.

Source of the values: patent US10172858B2, “Combination pharmaceutical compositions and uses thereof” (Intellikine LLC, priority 2011, dated 2019).
